{"source": "patent US6706663B2", "about": "“Herbicidal 3-heterocyclic substituted benzisothiazole and benzisoxazole compounds” (Wyeth, priority 2000, dated 2004)", "key": {"[1]": {"test_system": "ABUTH (Abutilon theophrasti)", "experiment": "Postemergence herbicidal evaluation", "type": "in vivo, Medic.", "details": "postemergence", "method_in_brief": "(§1)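 Seedlings grown for about two weeks were sprayed postemergence and then kept under standard greenhouse care. Injury was rated visually 4–5 weeks after treatment on a 0–9 scale against untreated controls, and ratings from repeat tests were averaged.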"}, "[2]": {"test_system": "AMBEL (Ambrosia artemisifolia)", "experiment": "Postemergence herbicidal evaluation", "type": "in vivo, L.", "details": "postemergence", "method_in_brief": "as §1"}, "[3]": {"test_system": "CASOB (Cassia obtusifolia)", "experiment": "Postemergence herbicidal evaluation", "type": "in vivo, L.", "details": "postemergence", "method_in_brief": "as §1"}, "[4]": {"test_system": "CHEAL (Chenopodium album)", "experiment": "Postemergence herbicidal evaluation", "type": "in vivo, L.", "details": "postemergence", "method_in_brief": "as §1"}, "GALAP (Galium aparine) [5]": {"test_system": "GALAP (Galium aparine)", "experiment": "Postemergence herbicidal evaluation", "type": "in vivo", "details": "postemergence", "method_in_brief": "as §1"}, "[6]": {"test_system": "IPOHE (Ipomoea hederacea)", "experiment": "Postemergence herbicidal evaluation", "type": "in vivo, (L.) Jacq.", "details": "postemergence", "method_in_brief": "as §1"}, "SETVI (Setaria viridis) [7]": {"test_system": "SETVI (Setaria viridis)", "experiment": "Postemergence herbicidal evaluation", "type": "in vivo, (L.) Beau", "details": "postemergence", "method_in_brief": "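Seedlings grown about two weeks were sprayed with compound in 50/50 acetone/water containing 0.5% TWEEN 20, at about 0.0040 to 1.000 kg/ha via nozzle at 40 psi. Plants were kept under greenhouse conditions and visually rated on a 0-9 scale versus control four to five weeks after treatment; replicate tests averaged.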"}, "ORYSAT (Rice, Tebonnet) [8]": {"test_system": "ORYSAT (Rice, Tebonnet)", "experiment": "Postemergence herbicidal evaluation", "type": "in vivo, Oryza sativa, (L.) Tebonnet", "details": "postemergence", "method_in_brief": "as §1"}, "[9]": {"test_system": "TRZAWR (Wheat, Winter, cv Riband)", "experiment": "Postemergence herbicidal evaluation", "type": "in vivo, Triticum aestivum", "details": "postemergence", "method_in_brief": "as §1"}, "[10]": {"test_system": "AMBEL (Ambrosia artemisifolia)", "experiment": "Preemergence herbicidal evaluation", "type": "in vivo, L.", "details": "rated 4-5 weeks after treatment", "method_in_brief": "(§2)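 Each species was sown separately in potting soil over roughly one inch of soil, and the surface sprayed with compound dissolved in aqueous acetone. Assessment used a 0–9 visual scale against a control after four to five weeks.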"}, "[11]": {"test_system": "CASOB (Cassia obtusifolia)", "experiment": "Preemergence herbicidal evaluation", "type": "in vivo, L.", "details": "rated 4-5 weeks after treatment", "method_in_brief": "as §2"}, "[12]": {"test_system": "CHEAL (Chenopodium album)", "experiment": "Preemergence herbicidal evaluation", "type": "in vivo, L.", "details": "rated 4-5 weeks after treatment", "method_in_brief": "as §2"}, "GALAP (Galium aparine) [13]": {"test_system": "GALAP (Galium aparine)", "experiment": "Preemergence herbicidal evaluation", "type": "in vivo", "details": "rated 4-5 weeks after treatment", "method_in_brief": "as §2"}, "[14]": {"test_system": "ECHCG (Echinochloa crus-galli)", "experiment": "Preemergence herbicidal evaluation", "type": "in vivo, (L.) Beau", "details": "rated 4-5 weeks after treatment", "method_in_brief": "as §2"}, "SETVI (Setaria viridis) [15]": {"test_system": "SETVI (Setaria viridis)", "experiment": "Preemergence herbicidal evaluation", "type": "in vivo, (L.) Beau", "details": "rated 4-5 weeks after treatment", "method_in_brief": "as §2"}, "ORYSAT (Rice, Tebonnet) [16]": {"test_system": "ORYSAT (Rice, Tebonnet)", "experiment": "Preemergence herbicidal evaluation", "type": "in vivo, Oryza sativa, (L.) Tebonnet", "details": "rated 4-5 weeks after treatment"}, "CYPIR (Cyperus iria)": {"test_system": "CYPIR (Cyperus iria)", "experiment": "Flooded paddy, preemergence weed control", "type": "in vivo", "details": "rated 3-4 weeks after treatment, 0-9 rating scale", "method_in_brief": "(§3)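 Visual 0–9 ratings versus controls scored stand, vigor, malformation, size, chlorosis and overall appearance. Plants grew from seeds or propagating organs sown 0.5 cm deep in silt loam, with water held 1.5–3 cm above the soil for the whole test under greenhouse care.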"}, "[17]": {"test_system": "MOOVA (Monochoria vaginalis)", "experiment": "Flooded paddy, preemergence weed control", "type": "in vivo, Presl.", "details": "rated 3-4 weeks after treatment, 0-9 rating scale", "method_in_brief": "as §3"}, "[18]": {"test_system": "SAGPY (Sagittaria pygmaea)", "experiment": "Flooded paddy, preemergence weed control", "type": "in vivo, L.", "details": "rated 3-4 weeks after treatment, 0-9 rating scale", "method_in_brief": "as §3"}}}
{"smiles": "C=C1COC(c2nsc3ccc(-n4c(=O)cc(C(F)(F)F)n(C)c4=O)cc23)OC1", "note": "[Compound 58, 2,4(1H,3H)-pyrimidinedione, 1-methyl-3-[3-(5-methylene-m-dioxan-2-yl)-1,2-benzisothiazol-5-yl]-6-(trifluoromethyl)-]", "values": [{"measurement": "ABUTH herbicidal rating", "setting": "[1]; rate 0.0320 kg/ha", "result": 9.0}, {"measurement": "ABUTH herbicidal rating", "setting": "[1]; rate 0.0620 kg/ha", "result": 9.0}, {"measurement": "AMBEL herbicidal rating", "setting": "[2]; rate 0.0320 kg/ha", "result": 9.0}, {"measurement": "AMBEL herbicidal rating", "setting": "[2]; rate 0.0620 kg/ha", "result": 9.0}, {"measurement": "CASOB herbicidal rating", "setting": "[3]; rate 0.0320 kg/ha", "result": 1.0}, {"measurement": "CASOB herbicidal rating", "setting": "[3]; rate 0.0620 kg/ha", "result": 8.0}, {"measurement": "CHEAL herbicidal rating", "setting": "[4]; rate 0.0320 kg/ha", "result": 3.0}, {"measurement": "CHEAL herbicidal rating", "setting": "[4]; rate 0.0620 kg/ha", "result": 5.0}, {"measurement": "GALAP herbicidal rating", "setting": "GALAP (Galium aparine) [5]; rate 0.0320 kg/ha", "result": 7.0}, {"measurement": "GALAP herbicidal rating", "setting": "GALAP (Galium aparine) [5]; rate 0.0620 kg/ha", "result": 9.0}, {"measurement": "IPOHE herbicidal rating", "setting": "[6]; rate 0.0320 kg/ha", "result": 9.0}, {"measurement": "IPOHE herbicidal rating", "setting": "[6]; rate 0.0620 kg/ha", "result": 9.0}, {"measurement": "SETVI herbicidal rating", "setting": "SETVI (Setaria viridis) [7]; rate 0.0320 kg/ha", "result": 1.0}, {"measurement": "SETVI herbicidal rating", "setting": "SETVI (Setaria viridis) [7]; rate 0.0620 kg/ha", "result": 6.0}, {"measurement": "ORYSAT herbicidal rating", "setting": "ORYSAT (Rice, Tebonnet) [8]; rate 0.0320 kg/ha", "result": 3.5}, {"measurement": "ORYSAT herbicidal rating", "setting": "ORYSAT (Rice, Tebonnet) [8]; rate 0.0620 kg/ha", "result": 5.0}, {"measurement": "TRZAWR herbicidal rating", "setting": "[9]; rate 0.0320 kg/ha", "result": 4.0}, {"measurement": "TRZAWR herbicidal rating", "setting": "[9]; rate 0.0620 kg/ha", "result": 4.5}, {"measurement": "Preemergence herbicidal rating AMBEL", "setting": "[10]; Rate 0.0620 kg/ha", "result": 9.0}, {"measurement": "Preemergence herbicidal rating AMBEL", "setting": "[10]; Rate 0.1250 kg/ha", "result": 9.0}, {"measurement": "Preemergence herbicidal rating AMBEL", "setting": "[10]; Rate 0.2500 kg/ha", "result": 9.0}, {"measurement": "Preemergence herbicidal rating CASOB", "setting": "[11]; Rate 0.0620 kg/ha", "result": 5.5}, {"measurement": "Preemergence herbicidal rating CASOB", "setting": "[11]; Rate 0.1250 kg/ha", "result": 6.5}, {"measurement": "Preemergence herbicidal rating CASOB", "setting": "[11]; Rate 0.2500 kg/ha", "result": 9.0}, {"measurement": "Preemergence herbicidal rating CHEAL", "setting": "[12]; Rate 0.0620 kg/ha", "result": 9.0}, {"measurement": "Preemergence herbicidal rating CHEAL", "setting": "[12]; Rate 0.1250 kg/ha", "result": 9.0}, {"measurement": "Preemergence herbicidal rating CHEAL", "setting": "[12]; Rate 0.2500 kg/ha", "result": 9.0}, {"measurement": "Preemergence herbicidal rating GALAP", "setting": "GALAP (Galium aparine) [13]; Rate 0.0620 kg/ha", "result": 9.0}, {"measurement": "Preemergence herbicidal rating GALAP", "setting": "GALAP (Galium aparine) [13]; Rate 0.1250 kg/ha", "result": 9.0}, {"measurement": "Preemergence herbicidal rating GALAP", "setting": "GALAP (Galium aparine) [13]; Rate 0.2500 kg/ha", "result": 9.0}, {"measurement": "Preemergence herbicidal rating ECHCG", "setting": "[14]; Rate 0.0620 kg/ha", "result": 9.0}, {"measurement": "Preemergence herbicidal rating ECHCG", "setting": "[14]; Rate 0.1250 kg/ha", "result": 9.0}, {"measurement": "Preemergence herbicidal rating ECHCG", "setting": "[14]; Rate 0.2500 kg/ha", "result": 9.0}, {"measurement": "Preemergence herbicidal rating SETVI", "setting": "SETVI (Setaria viridis) [15]; Rate 0.0620 kg/ha", "result": 8.0}, {"measurement": "Preemergence herbicidal rating SETVI", "setting": "SETVI (Setaria viridis) [15]; Rate 0.1250 kg/ha", "result": 9.0}, {"measurement": "Preemergence herbicidal rating SETVI", "setting": "SETVI (Setaria viridis) [15]; Rate 0.2500 kg/ha", "result": 9.0}, {"measurement": "Preemergence herbicidal rating ORYSAT", "setting": "ORYSAT (Rice, Tebonnet) [16]; Rate 0.0620 kg/ha", "result": 8.5}, {"measurement": "Preemergence herbicidal rating ORYSAT", "setting": "ORYSAT (Rice, Tebonnet) [16]; Rate 0.1250 kg/ha", "result": 9.0}, {"measurement": "Preemergence herbicidal rating ORYSAT", "setting": "ORYSAT (Rice, Tebonnet) [16]; Rate 0.2500 kg/ha", "result": 9.0}, {"measurement": "herbicidal rating, CYPIR", "setting": "CYPIR (Cyperus iria); rate 0.0320 kg/ha", "result": 6.0}, {"measurement": "herbicidal rating, CYPIR", "setting": "CYPIR (Cyperus iria); rate 0.1250 kg/ha", "result": 9.0}, {"measurement": "herbicidal rating, MOOVA", "setting": "[17]; rate 0.0320 kg/ha", "result": 9.0}, {"measurement": "herbicidal rating, MOOVA", "setting": "[17]; rate 0.1250 kg/ha", "result": 9.0}, {"measurement": "herbicidal rating, SAGPY", "setting": "[18]; rate 0.0320 kg/ha", "result": 2.0}, {"measurement": "herbicidal rating, SAGPY", "setting": "[18]; rate 0.1250 kg/ha", "result": 5.0}]}
